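Each compound was tested at five concentrations against cells in 96-well plates for 48 hours. The concentration for 50% growth inhibition is given as GI50.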 Activity calls are given as the source filed them. No stated cut-off is given here; in the data, active = GI50 up to about 1.1 µM and inactive = higher.
Columns and labels:
Assay in all cases: inhibition of tumour cell growth, NCI panel, 48 h
DLD-1 = tested on: DLD-1
DMS-114 = tested on: DMS-114
HOP-18 = tested on: HOP-18
KM-20L2 = tested on: KM-20L2
LXFL 529 = tested on: LXFL 529
SNB-78 = tested on: SNB-78
M19-MEL = tested on: M19-MEL
RXF 631 = tested on: RXF 631
XF498 = tested on: XF498

Compound	GI50 (DLD-1)	GI50 (DMS-114)	GI50 (HOP-18)	GI50 (KM-20L2)	GI50 (LXFL 529)	GI50 (SNB-78)	GI50 (M19-MEL)	GI50 (RXF 631)	GI50 (XF498)
N/C(=N\N=C\c1c[nH]c2ccccc12)Nc1ccccc1	0.474 µM (active)	0.357 µM (active)	17.9 µM (inactive)	0.327 µM (active)	0.504 µM (active)	1.08 µM (active)	–	–	–
BrC12c3ccccc3Sc3ccccc3C1(Br)c1ccccc12 (centres undefined)	33 µM (inactive)	19.5 µM (inactive)	51.5 µM (inactive)	20.6 µM (inactive)	20.9 µM (inactive)	–	35.2 µM (inactive)	25.9 µM (inactive)	–
CC(C)=CCC/C(=C/CC/C(C)=C/CCc1ccoc1)C(=O)O	84.5 µM (inactive)	> 100 µM (inactive)	–	> 100 µM (inactive)	> 100 µM (inactive)	> 100 µM (inactive)	> 100 µM (inactive)	–	> 100 µM (inactive)
CCc1nc2ccc(NCCN(C)C)c3c(=O)c4ccccc4n1c23	0.533 µM (active)	1.49 µM (inactive)	0.891 µM (active)	0.741 µM (active)	0.82 µM (active)	1.53 µM (inactive)	2 µM (inactive)	–	–
Cc1c(Cl)cccc1NC(=O)C(=O)C1C(=O)NC(=O)NC1=O	> 100 µM (inactive)	–	> 100 µM (inactive)	> 100 µM (inactive)	> 100 µM (inactive)	> 100 µM (inactive)	> 100 µM (inactive)	–	> 100 µM (inactive)
O=C1C[C@@H]2CCCC[C@@H]2C12SCCS2	> 100 µM (inactive)	89.1 µM (inactive)	–	–	> 100 µM (inactive)	> 100 µM (inactive)	> 100 µM (inactive)	> 100 µM (inactive)	58.1 µM (inactive)
CCSc1c2ccccc2c(-c2nc(F)nc(F)n2)n1CCc1ccccc1	–	> 100 µM (inactive)	–	> 100 µM (inactive)	> 100 µM (inactive)	> 100 µM (inactive)	> 100 µM (inactive)	> 100 µM (inactive)	> 100 µM (inactive)
COCC12CC(CC1=O)C1C2ON2c3ccccc3C(=O)C12c1ccccc1 (centres undefined)	> 100 µM (inactive)	> 100 µM (inactive)	> 100 µM (inactive)	> 100 µM (inactive)	> 100 µM (inactive)	68.7 µM (inactive)	–	–	> 100 µM (inactive)
CN1CCC(CN2c3ccccc3Sc3ccccc32)CC1	14.7 µM (inactive)	15.9 µM (inactive)	14.3 µM (inactive)	12.9 µM (inactive)	14.4 µM (inactive)	15.8 µM (inactive)	13.4 µM (inactive)	–	11.5 µM (inactive)
COCCNC(=O)C1C(=O)N(CCOC)C(=O)/C1=N/N (centres undefined)	> 100 µM (inactive)	–	–	> 100 µM (inactive)	> 100 µM (inactive)	> 100 µM (inactive)	> 100 µM (inactive)	–	> 100 µM (inactive)
O=c1[nH]nc2ccccc2c1Cl	10.4 µM (inactive)	4.89 µM (inactive)	15.7 µM (inactive)	14.6 µM (inactive)	–	13.3 µM (inactive)	6.92 µM (inactive)	12.9 µM (inactive)	14.5 µM (inactive)
COc1ccc(/C=C2\CCC(C)(CN(C)C)C2=O)cc1Br (centres undefined)	17.3 µM (inactive)	24.4 µM (inactive)	28.8 µM (inactive)	1.26 µM (inactive)	17.9 µM (inactive)	38.1 µM (inactive)	17.3 µM (inactive)	–	18.8 µM (inactive)
COC1C2C[C@@H](O)CCC2C(C(=O)OCCl)C[C@H]1O (some centres undefined)	> 100 µM (inactive)	> 100 µM (inactive)	> 100 µM (inactive)	> 100 µM (inactive)	> 100 µM (inactive)	> 100 µM (inactive)	> 100 µM (inactive)	> 100 µM (inactive)	–
c1csc(C[N+]23CN4CN(CN(C4)C2)C3)c1	33.7 µM (inactive)	20.6 µM (inactive)	–	26.5 µM (inactive)	20.3 µM (inactive)	–	25.9 µM (inactive)	–	–
COc1cccc2c1C(=O)C1(O)CCCCC21 (centres undefined)	> 100 µM (inactive)	> 100 µM (inactive)	> 100 µM (inactive)	> 100 µM (inactive)	> 100 µM (inactive)	> 100 µM (inactive)	> 100 µM (inactive)	–	–
Cc1ccc(N2C[N+](c3ccccc3)=NC(c3ccccc3)=N2)cc1	54.6 µM (inactive)	24.4 µM (inactive)	–	56.9 µM (inactive)	24.8 µM (inactive)	> 10 µM (inactive)	28.9 µM (inactive)	–	43.8 µM (inactive)
O=c1[nH]c(=O)n(C2OC(COP(=O)(O)OP(=O)(O)O)C(O)C2O)cc1F (centres undefined)	0.226 µM (active)	28.5 µM (inactive)	> 28 µM (inactive)	0.923 µM (active)	0.555 µM (active)	5.79 µM (inactive)	1.82 µM (inactive)	–	1.69 µM (inactive)
N#Cc1cccc(N2C(=O)c3c(c(-c4ccccc4)c(-c4ccc(Sc5ccc(-c6c(-c7ccccc7)c7c(c(-c8ccccc8)c6-c6ccccc6)C(=O)N(c6cccc(C#N)c6)C7=O)cc5)cc4)c(-c4ccccc4)c3-c3ccccc3)C2=O)c1	> 100 µM (inactive)	89.5 µM (inactive)	–	> 100 µM (inactive)	37.7 µM (inactive)	35.1 µM (inactive)	–	> 100 µM (inactive)	30.5 µM (inactive)
CCOC(=O)N1CCC(=O)C[C@@H]1C/C=C/P1(=O)O[C@H](c2ccccc2)C(C)N1C(C)C (some centres undefined)	–	> 100 µM (inactive)	–	> 100 µM (inactive)	> 100 µM (inactive)	> 100 µM (inactive)	> 100 µM (inactive)	–	–
CS/C(C)=N/OC(=O)NCCCCNc1ccc(N=[N+]=[N-])cc1	> 100 µM (inactive)	13.1 µM (inactive)	> 100 µM (inactive)	41.5 µM (inactive)	24.1 µM (inactive)	82.6 µM (inactive)	34.6 µM (inactive)	17.4 µM (inactive)	13.8 µM (inactive)
NC1=NC(Cn2nc(-c3ccccc3)c3ccccc3c2=O)=NNC(=O)N1	> 100 µM (inactive)	–	> 100 µM (inactive)	–	> 100 µM (inactive)	> 100 µM (inactive)	> 100 µM (inactive)	–	–
CC(C)c1ccc2c(c1)CCC1C(C)(C)[C@@H](O)CC[C@]21C (some centres undefined)	36.6 µM (inactive)	34.8 µM (inactive)	–	21.4 µM (inactive)	47.3 µM (inactive)	47.4 µM (inactive)	19.4 µM (inactive)	–	–
COC(=O)CCC(=O)N1CC1C (centres undefined)	> 100 µM (inactive)	> 100 µM (inactive)	> 100 µM (inactive)	> 100 µM (inactive)	> 100 µM (inactive)	–	> 100 µM (inactive)	–	> 100 µM (inactive)

From ChEMBL document CHEMBL1201862, “PubChem BioAssay data set” (2004)
